# Measurements: US11952364B2, “TRK inhibitors useful as anticancer drugs” (TYLIGAND BIOSCIENCE (SHANGHAI) LIMITED, priority 2018, dated 2024)
# Tested on: Ba/F3 ETV6-NTRK3 cells
# Test: Proliferation of Ba/F3 ETV6-NTRK3 cells (CellTiter-Glo)
# Assay type: cell-based
# Conditions: Mus musculus, BaF3; Table 3; 72 hours
# Description: Ba/F3 ETV6-NTRK3 is a stable transgenic cell line constructed by KYinno Biotechnology Co., Ltd. on mouse primary B cell Ba/F3 wherein NTRK3 is highly expressed and fused with ETV6 to form ETV6-NTRK3. • [Test method]: Promega's CellTiter-Glo® Luminescent Cell Viability Assay kit was used to evaluate the inhibitory activity of the compounds on the proliferation of Ba/F3 ETV6-NTRK3 cells. • [Instrument]: Spectramax M3 multifunctional microplate reader from Molecular Devices. • [Test materials]: Ba/F3 ETV6-NTRK3 cell line (constructed by KYinno Biotechnology Co., Ltd. (Beijing)), 96-well transparent flat-bottomed black-walled cell culture plate (Corning, cat #3603), RPMI-1640 media (GE, cat #SH30027.01), fetal bovine serum FBS (Thermo Fisher, cat #10099-141), CellTiter-Glo® Luminescent Cell Viability Assay kit (Promega, cat #G7572), PBS (Solarbio, cat #P1020), DMSO (Sigma, cat #D2650). • [Experimental procedure]: When resuscitating Ba/F3 ETV6-NTRK3 cells, the freezing tube was quickly shaken in a 37° C. water bath to melt within 1 minute. The thawed cell suspension was mixed uniformly with RPMI1640 medium containing 10% FBS, centrifuged at 1000 rpm for 5 minutes, and the supernatant discarded. 5 mL of complete medium (RPMI1640 medium with 10% FBS) was taken to resuspend the cell pellets, charged into a cell culture flask with a bottom area of 25 cm^2, and incubated in a cell incubator at 37° C., 95% humidity and 5% CO2. Cells were allowed to passage when the number of cells reached about 10^6 cells/mL. For cell passage, the old cell suspension was directly pipetted evenly, 1/5 of the cell suspension was kept, 4 mL of new complete medium was added, after pipetting evenly, the cell flask was placed in the cell incubator for further culturing. Cell plating was performed when the number of cells reached about 10^6 cells/mL again. For cell plating, 1/5 of the cell suspension was kept for further culturing as in the cell passage method, and the remaining 4/5 of the cell suspension was placed in a 15 mL centrifuge tube, detected for cell viability by Trypan blue exclusion method to ensure that cell viability was above 90%. A cell suspension with a density of 5.56×10^4 viable cells/mL was prepared with complete medium, and 90 μL of such cell suspension was added to a 96-well cell culture plate to obtain the cell density of 5000 viable cells/mL in the cell culture plate. A control group containing no cells, no compound and only complete medium (i.e. culture medium control) and a control group containing no compound but containing cells (i.e. cell control) were set. The cell plate was placed in a cell incubator overnight. The 10 mM compound stock solution in DMSO was first serially diluted with DMSO at a dilution factor of 3.16 times, to obtain 9 concentrations, and the 10th concentration was set as DMSO control without compound. Then, PBS was used to dilute the DMSO solutions of compounds of different concentrations, at a dilution factor of 100 times, so that the DMSO concentration in the compound solution of each concentration was 1%. Finally, 10 μL of each of the above solutions was added to the corresponding cell culture plate, so that the initial compound concentration was 10 μM, with the remaining concentrations being successively diluted at a dilution factor of 3.16 times, and the DMSO content in the cell culture plate was 0.1%. The cell plate was placed in a cell incubator and cultured for 72 hours. For endpoint detection, the CellTiter-Glo reagent was melted, and the cell plate was moved to room temperature to equilibrate for 30 minutes, added with 100 μL of CellTiter-Glo for each well, and shaken on an orbital shaker for 5 minutes to fully lyse the cells. The plate was kept at room temperature for 20 minutes to stabilize the luminescence signal, and the luminescence value of each well was scanned with a multi-functional microplate reader at full wavelength. • [Test samples]
row,SMILES,IC50 [nM]
1,"Cn1ncc2cc(Oc3ccc(NC(=O)c4ccc(C(F)(F)F)n(-c5ccc(F)cc5)c4=O)cc3F)c(-c3cn[nH]c3)cc21 [Example 1, N-(3-fluoro-4-(1-methyl-6-(1H-pyrazol-4-yl)-1H-indazol-5-yloxy)phenyl)-1-(4-fluorophenyl)-6-trifluoromethyl-2-oxo-1,2-dihydmpyridine-3-carboxamide monomethanesulfonate]",435
2,"Cn1ncc2cc(Oc3ccc(NC(=O)c4ccc(C5CC5)n(-c5ccc(F)cc5)c4=O)cc3F)c(-c3cn[nH]c3)cc21 [Example 2, N-(3-fluoro-4-(1-methyl-6-(1H-pyrazol-4-yl)-1H-indazol-5-yloxy)phenyl)-1-(4-fluorophenyl)-6-cyclopropyl-2-oxo-1,2-dihydmpyridine-3-carboxamide]",94
3,"CCn1ncc2cc(Oc3ccc(NC(=O)c4ccc(C)n(-c5ccc(F)cc5)c4=O)cc3F)c(-c3cn[nH]c3)cc21 [Example 3, N-(3-fluoro-4-(1-ethyl-6-(1H-pyrazol-4-yl)-1H-indazol-5-yloxy)phenyl)-1-(4-fluorophenyl)-6-methyl-2-oxo-1,2-dihydmpyridine-3-carboxamide]",663
4,"Cc1ccc(C(=O)Nc2ccc(Oc3cc4cnn(C(C)C)c4cc3-c3cn[nH]c3)c(F)c2)c(=O)n1-c1ccc(F)cc1 [Example 4, N-(3-fluoro-4-(1-isopropyl-6-(1H-pyrazol-4-yl)-1H-indazol-5-yloxy)phenyl)-1-(4-fluorophenyl)-6-methyl-2-oxo-1,2-dihydmpyridine-3-carboxamide]",762
5,"CCc1ccc(C(=O)Nc2ccc(Oc3cc4cnn(C)c4cc3-c3cn[nH]c3)c(F)c2)c(=O)n1-c1ccc(F)cc1 [Example 5, N-(3-fluoro-4-(1-methyl-6-(1H-pyrazol-4-yl)-1H-indazol-5-yloxy)phenyl)-1-(4-fluorophenyl)-6-ethyl-2-oxo-1,2-dihydropyridine-3-carboxamide]",60
6,"CC(C)c1ccc(C(=O)Nc2ccc(Oc3cc4cnn(C)c4cc3-c3cn[nH]c3)c(F)c2)c(=O)n1-c1ccc(F)cc1 [Example 6, N-(3-fluoro-4-(1-methyl-6-(1H-pyrazol-4-yl)-1H-indazol-5-yloxy)phenyl)-1-(4-fluorophenyl)-6-isopropyl-2-oxo-1,2-dihydropyridine-3-carboxamide]",284
7,"O=C(Nc1cnn2ccc(N3CCC[C@@H]3c3cc(F)ccc3F)nc12)N1CC[C@H](O)C1 [LOXO-101, Larotrectinib, reference compound]",5
8,"Cc1ccc(C(=O)Nc2ccc(Oc3cc4cnn(C)c4cc3-c3cn[nH]c3)c(F)c2)c(=O)n1-c1ccc(F)cc1 [Merestinib, reference compound]",684
